Measurements: PubChem BioAssay AID1919016 (Molecular Pharmacology Branch, DTP, NCI, 2023)
Values joined by “and” are separate entries in the source; they are usually repeats but may differ in a detail not shown here. Identical values can stand only once.

Test system: NCI-H196 complex spheroid growth, percent test/control
Experiment: Anticancer human tumor NCI-H196 cell line growth inhibition [AhR];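 also: seven days of drug exposure starting three days after plating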;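 as to viability, T/C: 100% = DMSO vehicle control wells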
Conditions: for viability, T/C: stronger effect = lower value; active = viability on the fitted dose curve at most 10% of control; inactive = the rest
Method in brief: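 Complex tumor spheroids co-cultured with HUVEC and human MSC stroma; AhR antagonists tested in combination with standard-of-care and investigational agents. Top concentration at or near clinical Cmax (else 10 microM), half-log dilutions; growth expressed as percent test/control.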

O=C(C=Cc1cccc(S(=O)(=O)Nc2ccccc2)c1)NO + Cc1cncc(-c2nc(NCCc3c[nH]c4ccccc34)c3ncn(C(C)C)c3n2)c1
active: viability, T/C (second compound 0.1 µM, first compound 10 µM) 0.47% | viability, T/C (second compound 0.316 µM, first compound 10 µM) 0.53% | viability, T/C (second compound 1 µM, first compound 10 µM) 1.69% | viability, T/C (second compound 3.16 µM, first compound 10 µM) 0.41% | viability, T/C (second compound 10 µM, first compound 10 µM) 0.74%
inactive: viability, T/C (second compound 0.1 µM, first compound 0.0316 µM) 102% | viability, T/C (second compound 0.1 µM, first compound 0.1 µM) 102% | viability, T/C (second compound 0.1 µM, first compound 0.316 µM) 79.6% | viability, T/C (second compound 0.1 µM, first compound 1 µM) 63.6% | viability, T/C (second compound 0.1 µM, first compound 3.16 µM) 18.5% | viability, T/C (second compound 0.316 µM, first compound 0.0316 µM) 103% | viability, T/C (second compound 0.316 µM, first compound 0.1 µM) 103% | viability, T/C (second compound 0.316 µM, first compound 0.316 µM) 96.2% | viability, T/C (second compound 0.316 µM, first compound 1 µM) 64.1% | viability, T/C (second compound 0.316 µM, first compound 3.16 µM) 12.2% | viability, T/C (second compound 1 µM, first compound 0.0316 µM) 110% | viability, T/C (second compound 1 µM, first compound 0.1 µM) 115% | viability, T/C (second compound 1 µM, first compound 0.316 µM) 110% | viability, T/C (second compound 1 µM, first compound 1 µM) 51.9% | viability, T/C (second compound 1 µM, first compound 3.16 µM) 18.3% | viability, T/C (second compound 3.16 µM, first compound 0.0316 µM) 114% | viability, T/C (second compound 3.16 µM, first compound 0.1 µM) 99.5% | viability, T/C (second compound 3.16 µM, first compound 0.316 µM) 96.7% | viability, T/C (second compound 3.16 µM, first compound 1 µM) 55.8% | viability, T/C (second compound 3.16 µM, first compound 3.16 µM) 21.7% | viability, T/C (second compound 10 µM, first compound 0.0316 µM) 89.3% | viability, T/C (second compound 10 µM, first compound 0.1 µM) 87.8% | viability, T/C (second compound 10 µM, first compound 0.316 µM) 79.5% | viability, T/C (second compound 10 µM, first compound 1 µM) 64.3% | viability, T/C (second compound 10 µM, first compound 3.16 µM) 15.7%
1290 nM: IC50 (curve of first compound, second compound 3.16 µM)
1300 nM: IC50 (curve of first compound, second compound 0.1 µM)
1380 nM: IC50 (curve of first compound, second compound 10 µM)
1120 nM: IC50 (curve of first compound, second compound 1 µM)
1360 nM: IC50 (curve of first compound, second compound 0.316 µM)

Nc1ccn(C2OC(CO)C(O)C2(F)F)c(=O)n1 (configuration not stated)
inactive: viability, T/C (compound 0.0316 µM) 72.3% and 95.5% and 90.8% | viability, T/C (compound 0.1 µM) 57.2% and 87.9% and 86.6% | viability, T/C (compound 0.316 µM) 46.1% and 58.9% and 65.1% | viability, T/C (compound 1 µM) 50.2% and 56.8% and 62.2% | viability, T/C (compound 3.16 µM) 61.4% and 61.8% and 66.2% | viability, T/C (compound 10 µM) 56.5% and 68.2% and 66.8%
10000 nM and > 10000 nM: IC50 (curve of compound)
